{
  "source": "patent US11005050B2",
  "about": "“Metal complexes” (Merck Patent GmbH, priority 2014, dated 2021)",
  "origin": "cited, not measured here",
  "conditions": "prior-art statement; for example in aromatic hydrocarbons or chlorobenzene",
  "data": [
    {"smiles": "c1cnc2c(c1)ccc1ccc[c]([Ir]([c]3cccc4ccc5cccnc5c34)[c]3cccc4ccc5cccnc5c34)c12", "note": "[tris(benzo[h]quinoline)iridium(III)]", "values": [
      {"measurement": "solubility in common organic solvents", "value": "virtually insoluble"}
    ]}
  ]
}
